Assay results: ChEMBL document CHEMBL1201862, “PubChem BioAssay data set” (2004)
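Values below derive from 48-hour exposures of cells grown in 96-well plates, with endpoints linearly interpolated between the two concentrations bracketing the appropriate inhibition level. At the GI50, growth is halved.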 Calls of active or inactive are those of the source. Cut-off read from the data, not from the text of the source: active = GI50 up to about 1.1 µM and inactive = higher.

How the values were obtained:
Test in all cases: NCI anticancer screen, dose series, 48 h
[1] = tested on: ACHN
[2] = tested on: DU-145
[3] = tested on: HCT-116
[4] = tested on: HCT-15
[5] = tested on: HOP-92
[6] = tested on: IGROV-1
[7] = tested on: LOX IMVI
[8] = tested on: MCF7
[9] = tested on: MDA-N
[10] = tested on: NCI-H23
[11] = tested on: NCI-H460
[12] = tested on: OVCAR-4
[13] = tested on: RXF 393
[14] = tested on: SF-295
[15] = tested on: SN12C
[16] = tested on: T47D
[17] = tested on: UACC-257
[18] = tested on: UACC-62
[19] = tested on: UO-31

Row | Structure (SMILES) | GI50 [1] | GI50 [2] | GI50 [3] | GI50 [4] | GI50 [5] | GI50 [6] | GI50 [7] | GI50 [8] | GI50 [9] | GI50 [10] | GI50 [11] | GI50 [12] | GI50 [13] | GI50 [14] | GI50 [15] | GI50 [16] | GI50 [17] | GI50 [18] | GI50 [19]
1 | CC(C)CN(CC#N)CC(C)C | > 100 µM (inactive) | > 100 µM (inactive) | > 100 µM (inactive) | > 100 µM | > 100 µM (inactive) | > 100 µM (inactive) | > 100 µM (inactive) | > 100 µM (inactive) | > 100 µM (inactive) | > 100 µM (inactive) | > 100 µM (inactive) | > 100 µM (inactive) | > 100 µM (inactive) | > 100 µM (inactive) | > 100 µM (inactive) | > 100 µM (inactive) | > 100 µM (inactive) | > 100 µM (inactive) | > 100 µM (inactive)
2 | CC(CC(C#N)(c1ccccc1)c1ccccc1)N1CCCCC1 (stereo not given) | 43.7 µM (inactive) | 59.8 µM (inactive) | 19.9 µM (inactive) | 22.9 µM | 31.9 µM (inactive) | 43.2 µM (inactive) | 17.3 µM (inactive) | 26.5 µM (inactive) | 19.1 µM (inactive) | 37.8 µM (inactive) | 16 µM (inactive) | 39.6 µM (inactive) | 28.7 µM (inactive) | 20 µM (inactive) | 26 µM (inactive) | 49.7 µM (inactive) | 14.6 µM (inactive) | 21.3 µM (inactive) | 26.2 µM (inactive)
3 | COc1ccc2nccc(/C=C/c3ccc(N(C)C)cc3)c2c1 | > 10 µM (inactive) | > 10 µM (inactive) | 8.59 µM (inactive) | > 10 µM | > 10 µM (inactive) | > 10 µM (inactive) | > 10 µM (inactive) | > 10 µM (inactive) | 3.02 µM (inactive) | > 10 µM (inactive) | > 10 µM (inactive) | > 10 µM (inactive) | > 10 µM (inactive) | > 10 µM (inactive) | > 10 µM (inactive) | > 10 µM (inactive) | > 10 µM (inactive) | > 10 µM (inactive) | > 10 µM (inactive)
4 | Nc1ncnc2c1ccn2CC#CCO | > 100 µM (inactive) | > 100 µM (inactive) | > 100 µM (inactive) | > 100 µM | > 100 µM (inactive) | > 100 µM (inactive) | > 100 µM (inactive) | > 100 µM (inactive) | > 100 µM (inactive) | > 100 µM (inactive) | > 100 µM (inactive) | > 100 µM (inactive) | 97.3 µM (inactive) | > 100 µM (inactive) | > 100 µM (inactive) | > 100 µM (inactive) | > 100 µM (inactive) | > 100 µM (inactive) | > 100 µM (inactive)
5 | NCCCCC(N)C(=O)NCCNc1ccc(NCCNC(=O)C(N)CCCCN)c2c1C(=O)c1ccccc1C2=O (stereo not given) | 35.6 µM (inactive) | > 100 µM (inactive) | 17.3 µM (inactive) | > 83.8 µM | 5.27 µM (inactive) | > 100 µM (inactive) | 9.35 µM (inactive) | > 100 µM (inactive) | > 100 µM (inactive) | > 65.8 µM (inactive) | 9.06 µM (inactive) | > 100 µM (inactive) | 9.86 µM (inactive) | > 100 µM (inactive) | 4.11 µM (inactive) | > 100 µM (inactive) | > 100 µM (inactive) | > 100 µM (inactive) | 32.3 µM (inactive)
6 | C#CCCOC(=O)CC1=C(C)/C(=C/c2ccc([S+](C)[O-])cc2)c2ccc(F)cc21 (stereo not given) | 19.7 µM (inactive) | 17.2 µM (inactive) | 16.8 µM (inactive) | 12.9 µM | 12.6 µM (inactive) | 20.8 µM (inactive) | 14.9 µM (inactive) | 19.4 µM (inactive) | 6.67 µM (inactive) | 22.2 µM (inactive) | 18 µM (inactive) | 19.2 µM (inactive) | 21.4 µM (inactive) | 13.9 µM (inactive) | 19.5 µM (inactive) | 20.1 µM (inactive) | 15.7 µM (inactive) | 13.6 µM (inactive) | 15.5 µM (inactive)
7 | CN(CCCN(C)Cc1ccc(Cl)c(Cl)c1)CCN1CCCC1 | 27.8 µM (inactive) | 62.1 µM (inactive) | 12 µM (inactive) | 29 µM | 4.16 µM (inactive) | 27.7 µM (inactive) | 14.4 µM (inactive) | 18.4 µM (inactive) | 4.32 µM (inactive) | 26.5 µM (inactive) | 16.9 µM (inactive) | 66.7 µM (inactive) | 15.1 µM (inactive) | 21.7 µM (inactive) | 37.8 µM (inactive) | 29.9 µM (inactive) | 2.62 µM (inactive) | 1.85 µM (inactive) | 4.78 µM (inactive)
8 | O=[N+]([O-])/C(C(Cl)=C(Cl)Cl)=C(\SCc1ccccc1)N1CCCCC1 | 17.4 µM (inactive) | 41.3 µM (inactive) | 16.3 µM (inactive) | 19.7 µM | 0.0879 µM (active) | 24.6 µM (inactive) | 15.9 µM (inactive) | 12.6 µM (inactive) | 17.5 µM (inactive) | 18 µM (inactive) | 23.8 µM (inactive) | 15 µM (inactive) | 19.7 µM (inactive) | 38.5 µM (inactive) | 20.2 µM (inactive) | 8.43 µM (inactive) | 28.4 µM (inactive) | 17.9 µM (inactive) | 24.2 µM (inactive)
9 | CC(=O)C1=CC=C/C1=N\Nc1ccccc1 | 11.2 µM (inactive) | 14.9 µM (inactive) | 4.99 µM (inactive) | 5.14 µM | 11.7 µM (inactive) | 7.4 µM (inactive) | 2.84 µM (inactive) | 1.29 µM (inactive) | 6.22 µM (inactive) | 9.06 µM (inactive) | 11.6 µM (inactive) | 5.71 µM (inactive) | 11.6 µM (inactive) | 11.8 µM (inactive) | 5.81 µM (inactive) | 3.33 µM (inactive) | 15.5 µM (inactive) | 6.97 µM (inactive) | 13.1 µM (inactive)
10 | COc1ccc2c(c1O)[C@@]13C=C(O)C(=O)C=C1[C@@H](C2)N(C)CC3 | 43.6 µM (inactive) | 56.9 µM (inactive) | 34.1 µM (inactive) | 68.7 µM | 53.2 µM (inactive) | 61.1 µM (inactive) | 31.6 µM (inactive) | 65.2 µM (inactive) | 47 µM (inactive) | 57.4 µM (inactive) | 63.4 µM (inactive) | 62.4 µM (inactive) | 48.1 µM (inactive) | > 100 µM (inactive) | 50 µM (inactive) | 63.4 µM (inactive) | 43 µM (inactive) | > 100 µM (inactive) | 51.9 µM (inactive)
11 | CCOP(=O)(OCC)/C(=C/c1cccs1)CC(C)=O | > 100 µM (inactive) | > 100 µM (inactive) | > 100 µM (inactive) | > 100 µM | > 100 µM (inactive) | > 100 µM (inactive) | > 100 µM (inactive) | > 100 µM (inactive) | > 100 µM (inactive) | > 100 µM (inactive) | > 100 µM (inactive) | > 100 µM (inactive) | > 100 µM (inactive) | > 100 µM (inactive) | > 100 µM (inactive) | 73.8 µM (inactive) | > 100 µM (inactive) | > 100 µM (inactive) | > 100 µM (inactive)
12 | CC1(CCCO)CCCCCCCCCC(C)(CCCO)C1=O (stereo not given) | > 100 µM (inactive) | > 100 µM (inactive) | 94 µM (inactive) | > 100 µM | > 100 µM (inactive) | > 100 µM (inactive) | > 100 µM (inactive) | > 100 µM (inactive) | > 100 µM (inactive) | > 100 µM (inactive) | > 100 µM (inactive) | > 100 µM (inactive) | > 100 µM (inactive) | > 100 µM (inactive) | > 100 µM (inactive) | > 100 µM (inactive) | > 100 µM (inactive) | > 100 µM (inactive) | > 100 µM (inactive)
13 | O=c1oc2ccc(Cl)cc2cc1-c1cn2ccccc2n1 | 2.64 µM (inactive) | > 61.9 µM (inactive) | 6.64 µM (inactive) | > 100 µM | 21.9 µM (inactive) | 29.2 µM (inactive) | 15 µM (inactive) | 24.5 µM (inactive) | > 100 µM (inactive) | 15.7 µM (inactive) | 14.6 µM (inactive) | 13.7 µM (inactive) | 13.7 µM (inactive) | 8.38 µM (inactive) | 7.76 µM (inactive) | > 61.2 µM (inactive) | > 94.4 µM (inactive) | 13 µM (inactive) | 4.72 µM (inactive)
14 | O=C(Oc1cccc2cccnc12)c1cc2cc(CCl)ccc2oc1=O | 19 µM (inactive) | 20.7 µM (inactive) | 3.4 µM (inactive) | 2.77 µM | 34.2 µM (inactive) | 24.4 µM (inactive) | 25.3 µM (inactive) | 3.14 µM (inactive) | 16.1 µM (inactive) | 8.39 µM (inactive) | 10.9 µM (inactive) | 25.6 µM (inactive) | 17.3 µM (inactive) | 37.4 µM (inactive) | 10.6 µM (inactive) | 4.29 µM (inactive) | 6.05 µM (inactive) | 8.57 µM (inactive) | 9.91 µM (inactive)
15 | CC(=O)O[C@H]1C(=O)[C@@]2(C)[C@H]([C@H](OC(=O)c3ccccc3)[C@]3(O)C[C@H](OC(=O)[C@H](O)[C@@H](NC(=O)c4ccccc4)c4ccccc4C)C(C)=C1C3(C)C)[C@]1(OC(C)=O)CO[C@@H]1C[C@@H]2O | 2.44 µM (inactive) | 1.85 µM (inactive) | 0.177 µM (active) | 6.38 µM | 2.13 µM (inactive) | 0.449 µM (active) | 0.631 µM (active) | 0.113 µM (active) | 0.0632 µM (active) | 0.948 µM (active) | 0.811 µM (active) | 3.78 µM (inactive) | 0.525 µM (active) | 1.16 µM (inactive) | 2.11 µM (inactive) | > 25 µM (inactive) | 0.718 µM (active) | 1.22 µM (inactive) | 6.46 µM (inactive)
